As a reminder, the half-life is how long it takes for the measured level to halve. For orientation: Kd means the concentration at which binding is half-saturated. Higher therefore signals weaker binding. As a reminder, the Ki is the equilibrium dissociation constant of an inhibitor or competing ligand from its target.

Numbered stars: 1 amine (or outer) side, 2 acyl side, 3 side chain; on linkers, the order of the positions; unused ones are H or OH. Bridge positions count the residues as written; N and C are the ends. Square brackets hold non-standard residues; d marks the D form. Peptide text beside a SMILES is read from it. I, II: the chains in the order shown. * marks the point of attachment. X2 = CN(C)c1ccc2c(c1)[Si](C)(C)C1=CC(=[N+](C)C)C=CC1=C2c1cc(C(=O)*)ccc1C(=O)O; X1 = O=C(O)c1cc(C(=O)*)ccc1-c1c2ccc(=O)cc-2oc2cc(O)ccc12; X3 = O=C(C[C@H](CCO)C(=O)[*:2])[C@H](Cc1ccc(O)cc1)N[*:1]; Palmitoyl = CCCCCCCCCCCCCCCC(=O)*; CH2COCH2 = O=C(C[*:1])C[*:2]; hSer = N[C@@H](CCO)C(=O)O; AEEA = NCCOCCOCC(=O)O

A short description of series [1]: Drug uptake in C57BL/6J mouse skin epidermis assessed as half life at 6.4 mg/kg, ip measured after 8 hrs by DAPI staining based fluorescence microscope assay. It is filed as ADME, organism-based. The following applies: in vivo.
Series [2] in a line: Half life in C57BL/6J mouse at 6.2 mg/kg, ip by RP-HPLC analysis. It is filed as ADME, organism-based. The following applies: in vivo.
Series [3] addresses Albumin (Mus musculus, UniProt P07724). Briefly: Binding affinity to mouse serum albumin by fluorescence polarization assay. A general note: Fluorescence polarisation rises when a labelled molecule tumbles more slowly, as on binding a larger partner.
Series [4] in a line: Drug uptake in C57BL/6J mouse skin epidermis at 6.2 mg/kg, iv measured after 8 hrs by fluorescence imaging analysis. It counts as ADME, organism-based. The following applies: in vivo.
A further series has as its target T1, Kallikrein-5 (Homo sapiens, UniProt Q9Y337).
T1 sequence (Q9Y337 whole entry): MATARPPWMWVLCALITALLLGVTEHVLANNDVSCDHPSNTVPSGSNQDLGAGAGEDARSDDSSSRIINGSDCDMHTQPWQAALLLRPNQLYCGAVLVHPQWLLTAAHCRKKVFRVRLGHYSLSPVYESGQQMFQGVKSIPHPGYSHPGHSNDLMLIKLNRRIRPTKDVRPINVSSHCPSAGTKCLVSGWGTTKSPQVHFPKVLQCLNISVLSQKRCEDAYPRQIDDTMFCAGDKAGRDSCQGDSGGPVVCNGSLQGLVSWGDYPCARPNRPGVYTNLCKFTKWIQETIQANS
Kind of series: Inhibition of C-terminal poly-His-tagged human recombinant KLK5 (30 to 293 residues) transfected in CHO cells assessed as inhibition constant using Boc-VPR-AMC as fluorogenic substrate incubated for 30 mins by fluorescence plate reader assay. It counts as cell-based.

Series [5] can be described thus: Drug degradation in C57BL/6J mouse at 6.2 mg/kg, ip measured after 18 to 28 mins by RP-HPLC analysis. It is filed as ADME, organism-based. The conditions noted are these: in vivo, time 18-28 min.
The next series has as its target Kallikrein-7 (Mus musculus, UniProt Q91VE3). Briefly: Inhibition of mouse KLK7 assessed as inhibition constant. Further details: species or system CHO; call rule not given here.
Series [6] is described as follows: Half life in C57BL/6J mouse at 6.2 mg/kg, sc by RP-HPLC analysis. It counts as ADME, organism-based. The following applies: in vivo.
A short description of series [7]: Drug uptake in C57BL/6J mouse skin at 12.4 mg/kg, ip measured after 48 hrs by fluorescence imaging analysis. It counts as ADME, organism-based, Skin of body. The conditions noted are these: in vivo.
Series [8] in a line: Drug degradation in C57BL/6J mouse at 6.2 mg/kg, iv measured at 21 to 22 mins by RP-HPLC analysis. It is filed as ADME, organism-based. The conditions noted are these: in vivo, time 21-22 min.
A short description of series [9]: Stability of the compound in human plasma assessed as half life […] by LC-MS analysis. It is filed as ADME, cell-free.
For series [10], the target named is Albumin (Homo sapiens, UniProt P02768). Kind of series: Binding affinity to human serum albumin by fluorescence polarization assay.
Sequence of Albumin (Homo sapiens, UniProt P02768) (P02768 whole entry): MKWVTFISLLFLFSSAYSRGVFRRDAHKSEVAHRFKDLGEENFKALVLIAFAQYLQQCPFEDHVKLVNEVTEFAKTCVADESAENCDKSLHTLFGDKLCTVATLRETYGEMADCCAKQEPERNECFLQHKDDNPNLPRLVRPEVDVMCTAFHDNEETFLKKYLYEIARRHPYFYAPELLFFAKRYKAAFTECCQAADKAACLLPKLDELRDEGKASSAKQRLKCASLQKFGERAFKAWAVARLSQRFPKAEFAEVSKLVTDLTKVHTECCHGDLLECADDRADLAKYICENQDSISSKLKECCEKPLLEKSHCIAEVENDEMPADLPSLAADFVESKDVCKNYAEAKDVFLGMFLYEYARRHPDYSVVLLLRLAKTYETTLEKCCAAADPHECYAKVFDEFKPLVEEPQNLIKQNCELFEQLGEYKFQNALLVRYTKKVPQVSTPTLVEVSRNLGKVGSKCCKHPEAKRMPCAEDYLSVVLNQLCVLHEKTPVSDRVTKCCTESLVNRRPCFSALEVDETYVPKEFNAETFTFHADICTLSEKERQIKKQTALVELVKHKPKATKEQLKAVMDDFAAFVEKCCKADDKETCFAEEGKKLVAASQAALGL
The nature of series [11]: Half life in C57BL/6J mouse at 6.2 mg/kg, iv by RP-HPLC analysis. It is filed as ADME, organism-based. The conditions noted are these: in vivo.
The nature of series [12]: Plasma concentration in C57BL/6J mouse at 6.2 mg/kg, ip measured upto 24 hrs by RP-HPLC analysis. It is filed as ADME, organism-based.
Series [13] is described as follows: Drug degradation in C57BL/6J mouse at 6.2 mg/kg, sc measured after 18 to 28 mins by RP-HPLC analysis. The conditions noted are these: in vivo, time 18-28 min. It is filed as ADME, organism-based.
Series [14] in a line: Drug uptake in C57BL/6J mouse skin epidermis assessed as half life at 3.2 mg/kg, iv by fluorescence imaging analysis. The conditions noted are these: time 8 hrs. It is filed as ADME, organism-based.

Sequence of Kallikrein-7 (Q91VE3 whole entry): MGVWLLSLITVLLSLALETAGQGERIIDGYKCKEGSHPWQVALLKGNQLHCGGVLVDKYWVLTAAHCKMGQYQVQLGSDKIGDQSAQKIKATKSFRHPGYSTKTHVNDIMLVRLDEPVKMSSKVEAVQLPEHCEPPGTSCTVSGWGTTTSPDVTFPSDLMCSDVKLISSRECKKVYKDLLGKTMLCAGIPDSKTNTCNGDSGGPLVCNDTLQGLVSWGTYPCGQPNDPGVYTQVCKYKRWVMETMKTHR
Sequence of Albumin (Mus musculus, UniProt P07724) (P07724 whole entry): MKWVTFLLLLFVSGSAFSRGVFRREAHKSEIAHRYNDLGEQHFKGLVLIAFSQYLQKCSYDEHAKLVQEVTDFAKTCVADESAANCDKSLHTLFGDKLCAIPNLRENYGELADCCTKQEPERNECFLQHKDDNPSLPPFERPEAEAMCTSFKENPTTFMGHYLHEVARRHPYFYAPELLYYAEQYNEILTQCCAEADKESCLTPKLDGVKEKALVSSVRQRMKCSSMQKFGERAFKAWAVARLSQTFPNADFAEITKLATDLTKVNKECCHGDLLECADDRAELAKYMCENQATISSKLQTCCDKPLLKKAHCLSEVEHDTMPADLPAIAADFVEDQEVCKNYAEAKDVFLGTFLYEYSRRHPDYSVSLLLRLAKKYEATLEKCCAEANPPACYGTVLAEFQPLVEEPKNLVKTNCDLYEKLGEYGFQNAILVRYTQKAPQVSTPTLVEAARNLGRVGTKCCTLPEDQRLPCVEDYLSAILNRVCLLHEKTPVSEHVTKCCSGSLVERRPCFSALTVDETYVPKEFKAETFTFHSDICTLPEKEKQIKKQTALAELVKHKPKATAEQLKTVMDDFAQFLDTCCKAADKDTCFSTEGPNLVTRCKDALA

`CCCCCCCCCCCCCCCC(=O)NCCCC[C@H](NC(=O)[C@@H](CCO)CC(=O)[C@H](Cc1ccc(O)cc1)NC(=O)[C@H](CCO)NC(=O)COCCOCCNC(=O)c1ccc(C(=O)O)c(C2=C3C=CC(=[N+](C)C)C=C3[Si](C)(C)c3cc(N(C)C)ccc32)c1)C(=O)N[C@@H](CCO)C(=O)N[C@@H](Cc1ccc(O)cc1)C(=O)N[C@@H](CCC(=O)O)C(=O)NCCOCCOCC(=O)NCCCC[C@H](NC(=O)CNC(=O)[C@@H]1CSCC(=O)CSC[C@H](NC(=O)CNC(C)=O)C(=O)N[C@@H]([C@@H](C)O)C(=O)N[C@@H](CCCNC(=N)N)C(=O)N[C@@H](CCC(N)=O)C(=O)N[C@@H](Cc2ccc(O)cc2)C(=O)N2CCC[C@H]2C(=O)N1)C(=O)NCC(N)=O` (I: Ac-GCTRQYPCGKG-NH2 / II: {X2-AEEA}-[hSer][X3]K(Palmitoyl)[hSer]YE[AEEA]; linker I:2-I:8 via CH2COCH2; amide I:10-II:C): the Drug uptake result in series [1] is “Active”.
On to `CCCCCCCCCCCCCCCC(=O)NCCCC[C@H](NC(=O)[C@H](CCC(=O)O)NC(=O)[C@H](Cc1ccc(O)cc1)NC(=O)[C@H](CCC(=O)O)NC(=O)COCCOCCNC(=O)c1ccc(-c2c3ccc(=O)cc-3oc3cc(O)ccc23)c(C(=O)O)c1)C(=O)N[C@@H](CCC(=O)O)C(=O)N[C@@H](Cc1ccc(O)cc1)C(=O)N[C@@H](CCC(=O)O)C(=O)NCCOCCOCC(=O)NCCCC[C@H](NC(=O)CNC(=O)[C@@H]1CSCC(=O)CSC[C@H](NC(=O)CN)C(=O)N[C@@H]([C@@H](C)O)C(=O)N[C@@H](CCCNC(=N)N)C(=O)N[C@@H](CCC(N)=O)C(=O)N[C@@H](Cc2ccc(O)cc2)C(=O)N2CCC[C@H]2C(=O)N1)C(=O)NCC(N)=O`, for which the half-life in series [2] is 5.1 h; in series [6], 5.8 h; in [9], 90 h; in series [11] it was 4.4 h. The Kd at Albumin [3] was determined as 7 µM; on Albumin [10] it was 0.119 µM. In addition, the Drug uptake entry in [4] and in series [7] was “Active” each time. In addition, the Ki stood at 0.0012 µM on Kallikrein-5 and 0.0041 µM at Kallikrein-7. In addition, the Stability entry in series [5], in [8] and in series [13] was “Unstable” throughout. Moreover, in series [12], the concentration at 24 h amounted to 20 µM.
Consider `CCCCCCCCCCCCCCCC(=O)NCCCC[C@H](NC(=O)[C@@H](CCO)CC(=O)[C@H](Cc1ccc(O)cc1)NC(=O)[C@H](CCO)NC(=O)COCCOCCNC(=O)c1ccc(-c2c3ccc(=O)cc-3oc3cc(O)ccc23)c(C(=O)O)c1)C(=O)N[C@@H](CCO)C(=O)N[C@@H](Cc1ccc(O)cc1)C(=O)N[C@@H](CCC(=O)O)C(=O)NCCOCCOCC(=O)NCCCC[C@H](NC(=O)CNC(=O)[C@@H]1CSCC(=O)CSC[C@H](NC(=O)CNC(C)=O)C(=O)N[C@@H]([C@@H](C)O)C(=O)N[C@@H](CCCNC(=N)N)C(=O)N[C@@H](CCC(N)=O)C(=O)N[C@@H](Cc2ccc(O)cc2)C(=O)N2CCC[C@H]2C(=O)N1)C(=O)NCC(N)=O` (I: Ac-GCTRQYPCGKG-NH2 / II: {X1-AEEA}-[hSer][X3]K(Palmitoyl)[hSer]YE[AEEA]; linker I:2-I:8 via CH2COCH2; amide I:10-II:C), for which, in [14], the half-life is 0.64 h.
As to `CCCCCCCCCCCCCCCC(=O)NCCCC[C@H](NC(=O)[C@H](CCC(=O)O)NC(=O)[C@@H](Cc1ccc(O)cc1)NC(=O)[C@H](CCC(=O)O)NC(=O)COCCOCCNC(=O)c1ccc(-c2c3ccc(=O)cc-3oc3cc(O)ccc23)c(C(=O)O)c1)C(=O)N[C@@H](CCC(=O)O)C(=O)N[C@@H](Cc1ccc(O)cc1)C(=O)N[C@@H](CCC(=O)O)C(=O)NCCOCCOCC(=O)NCCCC[C@H](NC(=O)CNC(=O)[C@@H]1CSCC(=O)CSC[C@H](NC(=O)[C@@H]2CCCN2)C(=O)N[C@@H](CC(C)C)C(=O)N[C@@H](Cc2ccc(O)cc2)C(=O)N[C@@H](CCCC)C(=O)N[C@@H](C)C(=O)N[C@@H](CCCCNC(=N)N)C(=O)N1)C(=O)NCC(N)=O`, the Stability result in series [8] is reported as “Unstable”. Moreover, the half-life in series [9] was more than 96 h; in [11] it was 6.2 h. Also, the concentration at 24 h in [12] stood at 20 µM.

(Values after ChEMBL document CHEMBL5137037, “Phage Display Selected Cyclic Peptide Inhibitors of Kallikrein-Related Peptidases 5 and 7 and Their In Vivo Delivery to the Skin” (J Med Chem, 2022).)
